The target in data set [1] is T1, Cytochrome P450 3A4 (Homo sapiens, UniProt P08684). Kind of data set: Inhibition of human CYP3A4 using 7-benzyloxyquinoline as substrate. In kind it is ADME.
Another data set deals with T2, Cytochrome P450 1A2 (Homo sapiens, UniProt P05177).
T2 sequence (P05177 whole entry): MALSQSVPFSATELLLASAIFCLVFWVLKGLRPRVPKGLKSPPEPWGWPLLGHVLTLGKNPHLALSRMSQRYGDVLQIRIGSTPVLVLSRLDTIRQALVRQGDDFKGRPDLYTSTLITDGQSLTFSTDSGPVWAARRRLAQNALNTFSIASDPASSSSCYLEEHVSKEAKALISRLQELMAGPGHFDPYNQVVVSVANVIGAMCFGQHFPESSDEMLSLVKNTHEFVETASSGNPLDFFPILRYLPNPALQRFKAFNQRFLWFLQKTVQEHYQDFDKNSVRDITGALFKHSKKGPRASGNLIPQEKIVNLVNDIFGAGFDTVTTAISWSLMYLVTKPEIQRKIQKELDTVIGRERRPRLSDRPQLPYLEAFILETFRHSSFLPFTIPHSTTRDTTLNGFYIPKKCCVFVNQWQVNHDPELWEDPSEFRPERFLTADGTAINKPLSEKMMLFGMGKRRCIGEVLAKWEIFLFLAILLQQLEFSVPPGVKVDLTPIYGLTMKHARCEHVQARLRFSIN
Kind of data set: Inhibition of human CYP1A2. In kind it is ADME.

Data set [2] addresses T1, Cytochrome P450 3A4. Kind of data set: Inhibition of human CYP3A4 using dibenzylfluorescein as substrate. In kind it is ADME.
In data set [3] the target is T1, Cytochrome P450 3A4. The data set can be described thus: Inhibition of human CYP3A4 using 7-benzyloxy-4-trifluoromethylcoumarin as substrate. In kind it is ADME.
The nature of data set [4]: Oral bioavailability in rat at 10 mg/kg. In kind it is ADME, organism-based. Particulars: in vivo.
Data set [5] concerns the target C-C chemokine receptor type 2 (Homo sapiens, UniProt P41597). The data set can be described thus: Antagonist activity at human CCR2. In kind it is functional.
The target in the next data set is Cytochrome P450 2C19 (Homo sapiens, UniProt P33261). Kind of data set: Inhibition of human CYP2C19. In kind it is ADME.
Chain of Cytochrome P450 2C19 (P33261 whole entry): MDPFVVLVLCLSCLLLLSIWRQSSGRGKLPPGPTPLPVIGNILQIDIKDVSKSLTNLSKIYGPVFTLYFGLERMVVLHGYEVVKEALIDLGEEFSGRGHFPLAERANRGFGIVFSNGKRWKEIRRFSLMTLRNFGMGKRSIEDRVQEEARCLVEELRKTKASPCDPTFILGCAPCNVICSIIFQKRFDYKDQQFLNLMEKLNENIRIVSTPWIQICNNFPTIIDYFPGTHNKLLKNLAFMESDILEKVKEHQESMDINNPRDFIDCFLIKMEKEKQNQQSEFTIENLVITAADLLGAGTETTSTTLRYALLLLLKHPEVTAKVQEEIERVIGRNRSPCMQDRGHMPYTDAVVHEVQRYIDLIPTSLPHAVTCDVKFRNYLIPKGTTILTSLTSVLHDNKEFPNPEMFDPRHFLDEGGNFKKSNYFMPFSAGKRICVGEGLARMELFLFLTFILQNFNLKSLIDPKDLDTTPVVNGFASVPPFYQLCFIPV
Data set [6] in a line: Cmax in rat at 10 mg/kg, po. To be noted: in vivo. More on the design: dose 10 mg/kg, route oral. In kind it is ADME, organism-based.
Data set [7] can be described thus: Half life in rat at 10 mg/kg, po. In kind it is ADME, organism-based. Details: dose 10 mg/kg, route oral. To be noted: in vivo.
A further data set concerns the target Cytochrome P450 2D6 (Homo sapiens, UniProt P10635). Kind of data set: Inhibition of human CYP2D6. In kind it is ADME.

SMILES strings stand for the structures.

Chain of C-C chemokine receptor type 2 (P41597 whole entry): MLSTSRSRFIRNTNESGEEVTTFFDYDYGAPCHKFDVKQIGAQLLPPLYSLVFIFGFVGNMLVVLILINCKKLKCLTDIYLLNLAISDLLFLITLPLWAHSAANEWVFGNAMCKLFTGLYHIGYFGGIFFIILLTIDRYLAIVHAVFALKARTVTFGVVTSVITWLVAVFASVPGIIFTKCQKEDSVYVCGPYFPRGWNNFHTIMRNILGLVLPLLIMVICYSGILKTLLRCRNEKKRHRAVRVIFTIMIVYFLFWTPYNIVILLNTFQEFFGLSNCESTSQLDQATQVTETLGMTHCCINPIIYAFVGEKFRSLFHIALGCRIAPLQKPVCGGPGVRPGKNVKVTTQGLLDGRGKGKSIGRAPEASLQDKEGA
T1 sequence (P08684 whole entry): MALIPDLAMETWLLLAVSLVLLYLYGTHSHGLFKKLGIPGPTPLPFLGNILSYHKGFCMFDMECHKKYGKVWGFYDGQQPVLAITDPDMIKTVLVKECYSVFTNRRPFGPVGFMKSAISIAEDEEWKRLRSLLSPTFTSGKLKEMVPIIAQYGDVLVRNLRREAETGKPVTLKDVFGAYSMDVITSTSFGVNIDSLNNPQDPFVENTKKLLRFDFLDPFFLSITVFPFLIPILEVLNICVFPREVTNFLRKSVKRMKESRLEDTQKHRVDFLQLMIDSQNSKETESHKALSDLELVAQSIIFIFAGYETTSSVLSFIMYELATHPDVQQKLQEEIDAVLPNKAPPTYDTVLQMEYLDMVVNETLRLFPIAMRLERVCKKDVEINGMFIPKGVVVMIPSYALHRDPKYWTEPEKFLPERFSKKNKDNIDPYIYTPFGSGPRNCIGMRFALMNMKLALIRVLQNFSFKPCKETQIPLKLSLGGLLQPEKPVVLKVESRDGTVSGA
Chain of Cytochrome P450 2D6 (P10635 whole entry): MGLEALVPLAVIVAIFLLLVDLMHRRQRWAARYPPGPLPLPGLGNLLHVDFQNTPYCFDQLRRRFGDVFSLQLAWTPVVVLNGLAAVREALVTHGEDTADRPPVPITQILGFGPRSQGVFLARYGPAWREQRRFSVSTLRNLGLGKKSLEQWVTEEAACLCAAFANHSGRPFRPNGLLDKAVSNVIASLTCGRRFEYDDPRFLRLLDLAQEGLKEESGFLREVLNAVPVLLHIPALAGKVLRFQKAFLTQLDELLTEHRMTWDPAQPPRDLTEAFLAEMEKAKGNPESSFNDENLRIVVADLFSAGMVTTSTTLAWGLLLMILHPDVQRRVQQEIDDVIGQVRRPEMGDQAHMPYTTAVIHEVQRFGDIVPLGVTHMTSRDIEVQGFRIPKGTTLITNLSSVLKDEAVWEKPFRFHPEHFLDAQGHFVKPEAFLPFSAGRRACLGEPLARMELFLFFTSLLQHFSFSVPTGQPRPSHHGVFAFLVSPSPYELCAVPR

For the compound `O=C(/C=C/c1cc(F)cc(F)c1)N1CCC([C@@H](CO)N2CCC(c3c[nH]c4ncccc34)CC2)CC1`, the IC50 against Cytochrome P450 3A4 [1] was over 40000 nM; on Cytochrome P450 1A2, over 40000 nM; at Cytochrome P450 3A4 [2], 20600 nM; against Cytochrome P450 3A4 [3], 25200 nM; in data set [5], 4 nM; against Cytochrome P450 2C19 it was 27100 nM. The compound also had an IC50 against Cytochrome P450 2D6 of 13300 nM. In data set [4], this compound came in with a bioavailability of 36%. Also, in [6], the highest level (Cmax) was 341 ng/mL. The compound also had a half-life in [7] of 5.6 h.
`O=C(O)C(C1CCN(C(=O)/C=C/c2cc(F)c(F)c(F)c2)CC1)N1CCC(c2c[nH]c3ncccc23)CC1` (stereo unspecified) showed an IC50 in [5] of 17 nM.
On the same count and under the same terms, then `O=C(/C=C/c1cc(F)c(F)c(F)c1)N1CCC(CN2CCC(c3c[nH]c4ncccc34)CC2)CC1`, with 1300 nM; and `O=C(Nc1ccc(Cl)c(Cl)c1)N1CCC(C(CO)N2CCC(c3c[nH]c4ncccc34)CC2)CC1` (racemic), with 14 nM.
Still for that read-out and setting: then `O=C(/C=C/c1cc(F)c(F)c(F)c1)N1CCC(C(CO)N2CCC(c3c[nH]c4ncccc34)CC2)CC1` (racemic), with 7 nM; and `O=C(/C=C/c1cc(F)cc(F)c1)N1CCC(C(CO)N2CCC(c3c[nH]c4ncccc34)CC2)CC1` (racemic), with 6 nM; and `O=C(/C=C/c1ccc(Cl)c(Cl)c1)N1CCC(C(CO)N2CCC(c3c[nH]c4ncccc34)CC2)CC1` (racemic), with 6 nM.

What is called IC50 is the concentration that inhibits the measured activity by half. Lower therefore signals greater potency. By bioavailability is commonly meant dose-corrected exposure relative to a reference, in per cent. Higher therefore signals much systemic uptake. As usually defined, the Cmax is the peak of the concentration-time curve. What is called half-life is the time in which the quantity being followed falls by half. A higher half-life goes with slow loss.

For the origin of these results see ChEMBL document CHEMBL1152182, “Synthesis and structure-activity relationship of 7-azaindole piperidine derivatives as CCR2 antagonists” (Bioorg Med Chem Lett, 2008).
